The values below come from patent publication US9732094B2, “Arylquinazolines” (Merck Patent GmbH, priority 2013, dated 2017).

The structures appear in SMILES notation. Where two headings read alike, the source gives them in different places.

Series [1] concerns the target T1, DNA-PK (Homo sapiens (Human), UniProt P78527). The note with it: ATP-competitive; Hardcastle et al. (2005); cited from earlier work.
The target in series [2] is T1, DNA-PK. Briefly: DNA-PK assay (biochemical), flashplate 33P-ATP kinase assay. The method, boiled down:
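Reactions ran in streptavidin-coated flashplates and were halted by 200 mM EDTA, with a further 30 min at room temperature before saline washing.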

The target in series [3] is DNA-PK phosphorylation at serine 2056 (Homo sapiens (Human), UniProt P78527). In words: DNA-PK phosphorylation at serine 2056 (cellular), bleomycin-treated HCT116 cells, ELISA. It is filed as cell-based. The conditions noted are these: cellular DNA-PK phosphorylation at serine 2056, HCT116; read-out: IC50 pDNA-PK. The method, boiled down:
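Test compounds and bleomycin (10 μM) are added to adherent HCT116 cells for 6 h. Detection uses an HRP-based chemiluminescent ELISA, with phospho-DNA-PK signals standardised to total protein.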
In general terms: ELISA stands for enzyme-linked immunosorbent assay.

For series [4], the target named is T2, Kv11.1 (hERG) (Homo sapiens (Human), UniProt Q12809). In words: Kv11.1 ion channel binding assay (Predictor hERG fluorescence polarisation). The note with it: cells marked *: measured using hERG binding assay instead of hERG patch clamp assay; read-out: Ki [Kv1.11 hERG]. Here is the method: D) Kv11.1 Ion Channel Binding Assay
Kv11.1 (hERG=human ether a go-go related […]) is a cardiac K^+ channel which should if possible not interact with the test substances. This interaction is determined quantitatively with the aid of the Predictor™ hERG Fluorescence Polarizations (FP) Assays from Life Technologies. In the case of this assay principle, cardiomyocyte cell membranes having a certain proportion of Kv11.1 channels are isolated. A dye-labelled Kv11.1 binding partner gives a high fluorescence polarisation signal by interaction with the Kv11.1. In the case of displacement of the dye, a reduction in the fluorescence polarisation signal occurs.
The assay is carried out automatically as follows: 15 nl of the test substances (highest concentration: 10 mM, 10 concentrations: dilution factors 1:3.16, DMSO) are transferred into an empty microtitre plates having 384 wells by means of an acoustic pipetter. 3 μl of the isolated membranes are subsequently added. Membranes and test substances are incubated at 22° C. for 15 min (+/−5 min). In the next step, the dye-labelled binding partner is added, followed by incubation at 22° C. After incubation for two hours, the measurement of the fluorescence polarisation is carried out on an Envision multimode Reader. Measured raw data are standardised with the aid of Genedata Assay Analyzer. The 1050 and % effect values are calculated in Genedata Condoseo.

Series [5] concerns kinases of the PI3K isoenzyme family. The note with it: cited from earlier work.
Series [6] deals with T2, Kv11.1 (hERG).
Experimental: C) Kv11.1 (hERG) Ion Channel Activity (Patch Clamp Assay)
The patch-clamp measurement was carried out at room temperature in whole-cell configuration on human embryonic kidney cells (HEK293) which have been transfected in a stable manner with the hERG gene.
The whole-cell configurations were carried out using an automated patch clamp device (Patchliner™, Nanion Technologies, Munich). […] The glass chip has a hole of defined size to which the cell is transferred into the Gigaseal by application of a reduced pressure and brought into the whole-cell configuration. Buffer, cell suspension and test substances were added to microchannels of the chip using a Teflon-coated pipette. The cells were clamped to a holding potential of −80 mV. For measurement of substance-promoted inhibition of the Kv11.1 channel, the following voltage protocol was applied at 10-second intervals: 51 ms/−80 mV, 500 ms/+40 mV, 500 ms/−40 mV, 200 ms/−80 mV. The leakage current is subtracted by means of the P4 method. The cells were resuspended in extracellular buffer (EC) and applied to the chip. After the cell had been collected, the seal was improved by addition of a seal enhancer buffer. As soon as the whole-cell configuration had been reached, the seal enhancer buffer was washed out and replaced by extracellular buffer. The measurement started in EC for 1.5 min. DMSO (vehicle control, 0.1% of DMSO) was then applied, and the control current was recorded for 3 min. The test substance was subsequently added twice in the same concentration, and the potassium current was measured for 3.5 min in each case.
The reference substance used was the Kv11.1 (hERG) ion channel blocker quinidine. The effects of test substances and quinidine were standardised to the associated vehicle control. The effect on the Kv11.1 (hERG) channel activity was assessed from the potassium current at −40 mV. For the calculation, the current was evaluated for the respective final trace.
During the measurement, an aliquot of the test substance was taken for concentration determination. The sample was measured immediately by HPLC, and the final concentration was determined from a calibration curve.

T2 sequence (Q12809 whole entry): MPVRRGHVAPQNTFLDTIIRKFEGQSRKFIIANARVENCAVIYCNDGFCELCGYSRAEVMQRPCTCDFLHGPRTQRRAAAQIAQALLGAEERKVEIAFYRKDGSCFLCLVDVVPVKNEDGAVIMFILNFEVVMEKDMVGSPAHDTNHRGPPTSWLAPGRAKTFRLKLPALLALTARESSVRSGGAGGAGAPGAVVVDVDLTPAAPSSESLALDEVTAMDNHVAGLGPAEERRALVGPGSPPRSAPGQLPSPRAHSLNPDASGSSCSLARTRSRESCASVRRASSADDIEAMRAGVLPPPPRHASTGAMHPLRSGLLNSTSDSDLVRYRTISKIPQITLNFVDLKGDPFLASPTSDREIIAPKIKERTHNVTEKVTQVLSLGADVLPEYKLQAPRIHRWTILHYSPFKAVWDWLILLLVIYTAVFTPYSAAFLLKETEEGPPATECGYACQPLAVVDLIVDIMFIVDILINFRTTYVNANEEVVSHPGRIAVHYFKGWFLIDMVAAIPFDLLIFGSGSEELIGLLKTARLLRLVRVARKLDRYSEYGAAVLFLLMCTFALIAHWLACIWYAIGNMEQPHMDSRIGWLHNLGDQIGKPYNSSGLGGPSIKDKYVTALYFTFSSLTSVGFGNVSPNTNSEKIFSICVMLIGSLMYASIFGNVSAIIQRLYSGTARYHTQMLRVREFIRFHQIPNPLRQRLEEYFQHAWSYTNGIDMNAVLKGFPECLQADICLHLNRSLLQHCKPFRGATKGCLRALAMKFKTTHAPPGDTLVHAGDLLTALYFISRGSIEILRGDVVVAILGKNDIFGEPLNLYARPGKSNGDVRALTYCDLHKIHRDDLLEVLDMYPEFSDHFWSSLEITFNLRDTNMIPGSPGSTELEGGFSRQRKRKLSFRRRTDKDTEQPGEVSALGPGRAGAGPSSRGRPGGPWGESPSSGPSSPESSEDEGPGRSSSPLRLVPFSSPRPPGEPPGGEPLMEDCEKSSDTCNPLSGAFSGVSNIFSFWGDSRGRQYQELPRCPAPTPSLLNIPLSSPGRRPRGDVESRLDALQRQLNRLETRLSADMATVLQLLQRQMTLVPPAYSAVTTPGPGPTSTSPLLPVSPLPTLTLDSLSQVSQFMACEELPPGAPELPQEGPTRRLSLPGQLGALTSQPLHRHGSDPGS

The IC50 is the midpoint of a concentration-inhibition curve. Consider `O=c1cc(N2CCOCC2)oc2c(-c3cccc4c3sc3ccccc34)cccc12` [NU-7441], for which the IC50 at DNA-PK [1] is 0.02 µM.

As a reminder, the Ki is a measure of affinity in units of concentration, obtained from inhibition or displacement. For `Cc1nccnc1C(C(N)=O)c1cc(-c2ncnc3cc(N4CCOCC4)sc23)c(F)cc1Cl` (stereo not shown) [Example 269, 2-[2-Chloro-4-fluoro-5-(6-morpholin-4-yl-thieno[3,2-d}-pyrimidin-4-yl)-phenyl]-2-(3-methyl-pyrazin-2-yl)-acetamide], the half-inhibitory concentration (IC50) on DNA-PK [2] (biochemical DNA-PK assay) lay within 0.003 to 0.007 µM; in series [3], 0.5 to 5 µM. For the same compound, the Ki on Kv11.1 (hERG) [4] is > 25 µM.

`CNC(=O)C(c1ccc2nccn2n1)c1cc(-c2ncnc3cc(N4CCOCC4)ccc23)c(F)cc1Cl` (stereo not shown) [Example 236, 2-[2-Chloro-4-fluoro-5-(7-morpholin-4-yl-quinazolin-4-yl)-phenyl]-2-imidazo-[1,2-b]pyridazin-6-yl-N-methylacetamide]: the values for the IC50 (at DNA-PK [2] (biochemical DNA-PK assay); in series [3]) were > 0.03 µM and 5 to 10 µM, respectively. The Ki at Kv11.1 (hERG) [4] was > 25 µM.

For the compound `COc1ccc(C(O)c2cc(-c3ncnc4cc(N5CCOCC5)cc(F)c34)c(F)cc2Cl)nn1` (stereo not shown) [Example 278, [2-chloro-4-fluoro-5-(5-fluoro-7-morpholin-4-ylquinazolin-4-yl)phenyl]-(6-methoxypyridazin-3-yl)methanol], the values for the IC50 (on DNA-PK [2] (biochemical DNA-PK assay); in series [3]) were < 0.003 µM and < 0.5 µM, respectively. Further, at Kv11.1 (hERG) [4], the Ki was > 25 µM.

For `CCN1CCN(CC(=O)Nc2ccc(-c3cccc4c(=O)cc(N5CCOCC5)oc34)c3sc4ccccc4c23)CC1` [KU-0060648], the “inhibition of kinases of the PI3K isoenzyme family” value in series [5] is on record as “potently inhibited”.

Turning to `[2H]C1([2H])OC([2H])([2H])C([2H])([2H])N(c2ccc3c(-c4cc(C(O)c5nccnc5C)ccc4F)ncnc3c2)C1([2H])[2H]` (stereo not shown) [Example 259, [4-Fluoro-3-[7-(2.2,3,3,5,5,6,6-octadeuteriomorpholin-4-yl)quinazolin-4-yl]phenyl]-(3-methyl-pyrazin-2-yl)-methanol], the IC50 is < 0.003 µM at DNA-PK [2] (biochemical DNA-PK assay) and < 0.5 µM in series [3]. Moreover, the Ki on Kv11.1 (hERG) [4] was > 25 µM.

On to `Cc1nccnc1C(O)c1ccc(F)c(-c2ncnc3cc(N4CCOCC4)cc(F)c23)c1` (stereo not shown) [Example 268, [4-Fluoro-3-(5-fluoro-7-morpholin-4-ylquinazolin-4-yl)phenyl]-(3-methylpyrazin-2-yl)methanol], for which the IC50 was < 0.003 µM against DNA-PK [2] (biochemical DNA-PK assay) and < 0.5 µM in series [3]. Moreover, the Ki on Kv11.1 (hERG) [4] is > 25 µM.

For the compound `Cc1nccnc1C(O)c1ccc(F)c(-c2ncnc3cc(N4CCOCC4)sc23)c1` (stereo not shown) [Example 245, [4-Fluoro-3-(6-morpholin-4-yl-thieno[3,2-d}-pyrimidin-4-yl)-phenyl]-(3-methyl-pyrazin-2-yl)-methanol], the IC50 was < 0.003 µM against DNA-PK [2] (biochemical DNA-PK assay) and < 0.5 µM in series [3]. Also, the Ki at Kv11.1 (hERG) [4] is > 25 µM.

Regarding `O=c1ccc(C(O)c2ccc(F)c(-c3ncnc4cc(N5C6CCC5COC6)ccc34)c2)n[nH]1` (stereo not shown) [Example 75, 6-({4-Fluoro-3-[7-(3-oxa-8-aza-bicyclo-[3.2.1]oct-8-yl)-quinazolin-4-yl]phenyl}-hydroxymethyl)-2H-pyridazin-3-one], the IC50 against DNA-PK [2] (enzymatic, 5 μM ATP) is > 0.03 µM. Further, the Ki at Kv11.1 (hERG) [6] was > 25 µM.

For `Cn1cnc2ccnc(C(O)c3ccc(F)c(-c4ncnc5cc(N6CCOCC6)ccc45)c3)c21` (stereo not shown) [Example 461, [4-Fluoro-3-(7-morpholin-4-yl-quinazolin-4-yl)-phenyl]-(3-methyl-3H-imidazo[4,5-c]-pyridin-4-yl)methanol], the IC50 was < 0.003 µM against DNA-PK [2] (biochemical DNA-PK assay) and < 0.5 µM in series [3]. On Kv11.1 (hERG) [4], the inhibitory constant (Ki) is > 25 µM.

As to `NC(=O)C(c1ccc(F)c(-c2ncnc3cc(N4CCOCC4)ccc23)c1)c1nccn2ncnc12` (stereo not shown) [Example 280, 2-[4-Fluoro-3-(7-morpholin-4-yl-quinazolin-4-yl)-phenyl]-2-[1,2,4]-triazolo[1,5-a]-pyrazin-8-yl-acetamide], the IC50 on DNA-PK [2] (biochemical DNA-PK assay) fell in the range of 0.007 to 0.03 µM; in series [3], 10 to 30 µM. The Ki at Kv11.1 (hERG) [4] was > 25 µM.
